Source: patent publication US7662896B2, “Fluorochemical sulfonamide surfactants” (3M Innovative Properties Company, priority 1999, dated 2010)

Key:
[1] = Surface tension in water (Test Procedure I, Kruss K12 Tensiometer); type: physicochemical; details: for Surface Tension (dynes/cm) at Various Surfactant Concentrations: 20 ppm: 20 ppm in water; for Surface Tension (dynes/cm) at Various Surfactant Concentrations: 200 ppm: 200 ppm in water; for Surface Tension (dynes/cm) at Various Surfactant Concentrations: 2000 ppm: 2000 ppm in water; for Surface Tension (dynes/cm) at Various Surfactant Concentrations: 10 ppm: 10 ppm in water; for Surface Tension (dynes/cm) at Various Surfactant Concentrations: 100 ppm: 100 ppm in water; for Surface Tension (dynes/cm) at Various Surfactant Concentrations: 1000 ppm: 1000 ppm in water
Experimental: Test Procedure I—Surface Tension Determination
All surface tensions were determined using a Kruss K12 Tensiometer. […] The program was run using a Wilhelmy platinum plate (PL12) and glass sample vessel (GL7).

[2] = test system: SPF-bred Sprague Dawley rats; experiment: 28-day oral toxicity study by daily gavage in the rat; type: in vivo; details: 28 days daily oral gavage; 3 (C8), 10 (C6), 30 (C4) mg/kg body weight/day
Experimental: (§1) A 28-day oral toxicity study with perfluorooctanesulfonate (C8F17SO3^−) was conducted by daily gavage in the rat followed by 14 and 28 day recovery periods. The dose levels for the study were selected to be 0 mg/kg body weight/day for species control, and 3 mg/kg body weight/day for potassium perfluorooctanesulfonate. The potassium perfluorooctanesulfonate was formulated in 1% aqueous carboxymethyl cellulose and administered daily for 28 days by oral gavage to SPF-bred Sprague Dawley rats. A vehicle control group and a treated group were tested, each consisting of 8 male and 8 female rats. An extra 3 rats per sex per group were allowed 14 days of recovery, and another 3 rats per sex per group were allowed 28 days of recovery.

[3] = Amount of perfluoroalkylsulfonate in male rat liver tissue (HPLC/ESMS/MS); type: in vivo; details: male rat liver; for Amount (ppm) of Sulfonate Day 1N*: normalized to a feeding level of 3 mg/kg body weight per day; for Amount (ppm) of Sulfonate Day 1: day 1 after 28 day dosing at 3 (C8), 10 (C6), 30 (C4) mg/kg/day; for Amount (ppm) of Sulfonate Day 14N* / Amount (ppm) of Sulfonate Day 28N*: normalized to 3 mg/kg body weight per day; for Amount (ppm) of Sulfonate Day 14: day 14 of recovery; for Amount (ppm) of Sulfonate Day 28: day 28 of recovery
Experimental: as §1
Extracted liver tissue samples from the sacrificed rats of the study were homogenized and extracted using an ion-pairing extraction procedure. The extracts were quantitatively analyzed using high-pressure liquid chromatography/electrospray tandem mass spectroscopy (HPLC/ESMS/MS) and evaluated.

[4] = as above; type: in vivo; details: for Elimination from the body (in words): rat, tested as potassium salt

Surface Tension (dynes/cm) at Various Surfactant Concentrations: 20 ppm [1] [dynes/cm] | Surface Tension (dynes/cm) at Various Surfactant Concentrations: 200 ppm [1] [dynes/cm] | Surface Tension (dynes/cm) at Various Surfactant Concentrations: 2000 ppm [1] [dynes/cm] | Compound | Surface Tension (dynes/cm) at Various Surfactant Concentrations: 10 ppm [1] [dynes/cm] | Surface Tension (dynes/cm) at Various Surfactant Concentrations: 100 ppm [1] [dynes/cm] | Surface Tension (dynes/cm) at Various Surfactant Concentrations: 1000 ppm [1] [dynes/cm] | Observed effects in treated rats [2] | Amount (ppm) of Sulfonate Day 1N* [3] [ppm] | Amount (ppm) of Sulfonate Day 1 [3] [ppm] | Amount (ppm) of Sulfonate Day 14N* [3] [ppm] | Amount (ppm) of Sulfonate Day 14 [3] [ppm] | Amount (ppm) of Sulfonate Day 28N* [3] [ppm] | Amount (ppm) of Sulfonate Day 28 [3] [ppm] | Factor lower than C6F13SO3^− in liver ([4]; 28 days following completion of feeding) | Factor lower than C6F13SO3^− in liver ([4]; 28 days following completion of feeding, normalized to the same feeding levels) | Factor lower than C6F13SO3^− in liver ([4]; immediately following completion of feeding) | Elimination from the body (in words) [4] | Elimination from the body (in words) ([4]; listed as perfluorobutylsulfonate)
48.2 | 30.8 | 15.5 | CN(CC(=O)[O-])S(=O)(=O)C(F)(F)C(F)(F)C(F)(F)C(F)(F)C(F)(F)C(F)(F)F.[K+] [C6F13SO2N(Et)CH2CO2K, C6F13SO2N(CH3)CH2CO2K] |  |  |  |  |  |  |  |  |  |  |  |  |  |  | 
 |  |  | O=S(=O)([O-])C(F)(F)C(F)(F)C(F)(F)C(F)(F)C(F)(F)C(F)(F)C(F)(F)C(F)(F)F.[K+] [Example C8F17SO3K, potassium perfluorooctanesulfonate] | 67.7 | 54.1 | 33.1 | decreased body weight, decreased blood cholesterol, increased liver size, and hepatocyte hypertrophy | 419 | 419 ± 86 | 309 | 309 ± 34 | 237 | 237 ± 25 |  |  |  |  | 
 |  |  | O=S(=O)([O-])C(F)(F)C(F)(F)C(F)(F)C(F)(F)F.[K+] [Example C4F9SO3K, Potassium perfluorobutanesulfonate] | 70 | 67.5 | 53 | No clear systematic toxicity, nor organ dysfunction at macroscopic or microscopic levels were observed | 0.31 | 3.09 ± 1.58 | 0.0126 | 0.126 ± 0.084 | 0.0025 | 0.025 ± 0.015 | > 1400 | 4400 | > 100 | unexpectedly fast and effective elimination | eliminates from the body much more effectively than perfluorohexylsulfonate and even more effectively than perfluorooctylsulfonate
68.5 | 57.4 | 44.4 | CN(CC(=O)[O-])S(=O)(=O)C(F)(F)C(F)(F)C(F)(F)C(F)(F)F.[K+] [C4F9SO2N(Et)CH2CO2K, C4F9SO2N(CH3)CH2CO2K] |  |  |  |  |  |  |  |  |  |  |  |  |  |  | 
